Results: paper PMC7053747 (PLoS ONE, 2020)
Like-named read-outs stand apart in the source and are kept apart here.

Legend:
kappa opioid receptor = kappa opioid receptor (Homo sapiens, UniProt P41145); assay: biochemical; format: binding
delta opioid receptor = delta opioid receptor (Homo sapiens, UniProt P41143); assay: biochemical; format: binding
[1] = target: T1, adrenergic alpha2A receptor (Homo sapiens, UniProt P08913); assay: biochemical; format: binding
T1 sequence (P08913 1-465): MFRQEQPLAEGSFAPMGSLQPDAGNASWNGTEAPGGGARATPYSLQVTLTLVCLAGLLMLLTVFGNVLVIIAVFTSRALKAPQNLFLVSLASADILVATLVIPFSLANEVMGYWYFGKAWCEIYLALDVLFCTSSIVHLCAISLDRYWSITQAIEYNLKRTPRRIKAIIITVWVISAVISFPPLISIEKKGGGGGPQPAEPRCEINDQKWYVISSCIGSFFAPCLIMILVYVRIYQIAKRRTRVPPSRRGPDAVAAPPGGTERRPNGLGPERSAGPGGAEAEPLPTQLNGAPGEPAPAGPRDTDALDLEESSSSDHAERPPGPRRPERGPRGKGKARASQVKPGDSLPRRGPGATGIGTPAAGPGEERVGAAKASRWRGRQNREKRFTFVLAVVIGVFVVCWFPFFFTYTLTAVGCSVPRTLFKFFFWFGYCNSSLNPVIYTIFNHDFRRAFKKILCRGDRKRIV

[2] = target: T2, adrenergic alpha2B receptor (Homo sapiens, UniProt P18089); assay: biochemical; format: binding
T2 construct: host or cells: transient HEKT cells
T2 sequence (P18089 1-450): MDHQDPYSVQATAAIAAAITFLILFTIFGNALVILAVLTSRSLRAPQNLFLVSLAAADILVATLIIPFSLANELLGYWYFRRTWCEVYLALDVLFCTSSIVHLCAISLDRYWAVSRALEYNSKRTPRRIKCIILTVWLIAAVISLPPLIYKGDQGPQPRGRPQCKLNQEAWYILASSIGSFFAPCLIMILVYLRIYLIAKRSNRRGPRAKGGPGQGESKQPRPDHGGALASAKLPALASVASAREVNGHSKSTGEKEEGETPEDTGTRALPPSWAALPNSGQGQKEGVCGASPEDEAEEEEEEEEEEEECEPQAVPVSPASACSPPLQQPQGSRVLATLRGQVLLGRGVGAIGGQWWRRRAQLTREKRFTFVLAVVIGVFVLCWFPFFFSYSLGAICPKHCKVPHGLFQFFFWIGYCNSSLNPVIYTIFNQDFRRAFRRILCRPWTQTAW

[3] = target: T3, adrenergic alpha2C receptor (Homo sapiens, UniProt P18825); assay: biochemical; format: binding
T3 sequence (P18825 1-462): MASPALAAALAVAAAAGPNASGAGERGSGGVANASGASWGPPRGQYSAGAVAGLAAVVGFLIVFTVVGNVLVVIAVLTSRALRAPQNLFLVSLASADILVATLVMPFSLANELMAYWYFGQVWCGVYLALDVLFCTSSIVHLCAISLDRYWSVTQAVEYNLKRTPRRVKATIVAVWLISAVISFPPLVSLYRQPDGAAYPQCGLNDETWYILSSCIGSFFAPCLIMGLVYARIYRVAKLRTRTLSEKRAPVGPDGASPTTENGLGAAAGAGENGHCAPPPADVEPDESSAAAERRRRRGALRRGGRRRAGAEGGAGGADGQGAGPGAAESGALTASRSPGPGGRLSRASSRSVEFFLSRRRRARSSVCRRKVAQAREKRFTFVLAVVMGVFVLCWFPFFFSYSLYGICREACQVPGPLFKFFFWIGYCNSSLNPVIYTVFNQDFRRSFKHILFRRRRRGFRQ

serotonin 5HT1A receptor = target: T4, serotonin 5HT1A receptor (Homo sapiens, UniProt P08908); assay: biochemical; format: binding
T4 sequence (P08908 1-422): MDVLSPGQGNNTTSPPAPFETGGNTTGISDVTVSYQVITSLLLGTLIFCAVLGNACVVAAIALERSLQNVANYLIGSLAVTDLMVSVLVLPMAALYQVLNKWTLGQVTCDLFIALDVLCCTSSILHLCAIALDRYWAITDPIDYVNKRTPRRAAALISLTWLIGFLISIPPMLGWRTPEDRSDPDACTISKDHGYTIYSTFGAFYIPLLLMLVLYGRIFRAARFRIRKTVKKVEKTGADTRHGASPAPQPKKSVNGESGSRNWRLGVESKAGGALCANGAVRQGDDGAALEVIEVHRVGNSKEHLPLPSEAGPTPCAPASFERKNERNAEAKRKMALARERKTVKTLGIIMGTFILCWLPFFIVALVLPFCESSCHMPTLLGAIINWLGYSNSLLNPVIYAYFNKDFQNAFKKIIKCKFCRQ

serotonin 5HT2A receptor = target: T5, serotonin 5HT2A receptor (Homo sapiens, UniProt P28223); assay: biochemical; format: binding
T5 construct: host or cells: transient HEKT cells (ATCC CRL-11268)

mouse opioid receptor = conditions: read-out: binding affinity; cited from earlier work
human mu opioid receptor [4] = conditions: read-out: binding affinity; cited from earlier work
[5] = target: rodent mu opioid receptor; conditions: read-out: binding affinity; cited from earlier work
[6] = target: human kappa opioid receptor; conditions: read-out: binding affinity; cited from earlier work
[7] = target: rodent kappa opioid receptor; conditions: read-out: binding affinity; cited from earlier work
[8] = target: human delta opioid receptor; conditions: read-out: binding affinity; cited from earlier work
[9] = target: rodent delta opioid receptor; conditions: read-out: binding affinity; cited from earlier work
human mu opioid receptor [10] = conditions: cited from earlier work
[11] = system: rodent mu opioid receptors; conditions: cited from earlier work
mu opioid receptor [12] = target: mu opioid receptor (Homo sapiens, UniProt P35372); assay: biochemical; format: binding
mu opioid receptor [13] = conditions: cited from earlier work

mu opioid receptor (Homo sapiens, UniProt P35372), sequence (P35372 whole entry): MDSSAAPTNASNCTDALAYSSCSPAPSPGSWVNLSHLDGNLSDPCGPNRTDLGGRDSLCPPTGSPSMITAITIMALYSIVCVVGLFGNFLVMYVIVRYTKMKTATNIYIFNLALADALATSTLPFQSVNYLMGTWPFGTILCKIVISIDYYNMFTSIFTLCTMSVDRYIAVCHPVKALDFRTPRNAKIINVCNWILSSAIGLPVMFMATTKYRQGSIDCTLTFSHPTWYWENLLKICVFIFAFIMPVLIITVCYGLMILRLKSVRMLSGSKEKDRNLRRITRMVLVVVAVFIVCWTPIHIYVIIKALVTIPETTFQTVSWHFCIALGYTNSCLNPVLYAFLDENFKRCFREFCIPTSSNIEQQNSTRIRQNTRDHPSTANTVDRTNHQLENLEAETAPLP
T5 sequence (P28223 whole entry): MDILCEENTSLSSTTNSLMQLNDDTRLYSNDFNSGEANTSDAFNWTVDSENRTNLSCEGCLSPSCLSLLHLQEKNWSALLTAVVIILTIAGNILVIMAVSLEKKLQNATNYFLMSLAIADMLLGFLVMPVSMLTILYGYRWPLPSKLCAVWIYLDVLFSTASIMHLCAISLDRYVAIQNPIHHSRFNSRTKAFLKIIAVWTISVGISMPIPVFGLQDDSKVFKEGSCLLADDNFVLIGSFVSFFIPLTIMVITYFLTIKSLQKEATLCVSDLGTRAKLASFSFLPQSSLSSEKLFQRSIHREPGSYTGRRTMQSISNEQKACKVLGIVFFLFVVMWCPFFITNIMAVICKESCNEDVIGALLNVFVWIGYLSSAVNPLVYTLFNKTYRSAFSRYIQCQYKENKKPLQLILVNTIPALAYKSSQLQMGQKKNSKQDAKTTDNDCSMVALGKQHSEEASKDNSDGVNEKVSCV
delta opioid receptor, sequence (P41143 whole entry): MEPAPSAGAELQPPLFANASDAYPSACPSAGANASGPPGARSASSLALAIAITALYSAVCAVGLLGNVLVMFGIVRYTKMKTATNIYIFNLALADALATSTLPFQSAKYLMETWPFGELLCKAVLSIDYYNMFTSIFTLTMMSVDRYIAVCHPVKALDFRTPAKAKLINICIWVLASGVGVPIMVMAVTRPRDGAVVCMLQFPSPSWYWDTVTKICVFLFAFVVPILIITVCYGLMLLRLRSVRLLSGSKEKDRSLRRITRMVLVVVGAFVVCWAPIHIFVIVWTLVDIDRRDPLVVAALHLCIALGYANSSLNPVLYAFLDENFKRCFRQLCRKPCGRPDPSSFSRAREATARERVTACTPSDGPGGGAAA
kappa opioid receptor, sequence (P41145 whole entry): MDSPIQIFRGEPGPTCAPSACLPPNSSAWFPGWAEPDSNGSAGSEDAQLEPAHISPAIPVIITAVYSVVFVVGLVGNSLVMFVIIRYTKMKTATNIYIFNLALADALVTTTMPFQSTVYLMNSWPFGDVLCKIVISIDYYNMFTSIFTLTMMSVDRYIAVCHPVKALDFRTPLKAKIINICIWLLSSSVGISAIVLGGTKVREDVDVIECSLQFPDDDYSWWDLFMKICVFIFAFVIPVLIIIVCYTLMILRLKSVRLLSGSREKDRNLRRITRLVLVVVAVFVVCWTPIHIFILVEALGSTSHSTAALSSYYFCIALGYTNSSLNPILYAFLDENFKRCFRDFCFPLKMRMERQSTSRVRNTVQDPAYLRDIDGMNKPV

For `CC[C@H]1CN2CCc3c([nH]c4cccc(OC)c34)[C@@H]2C[C@@H]1/C(=C\OC)C(=O)OC` [Compound 2, Speciogynine], the Ki (kappa opioid receptor; read-out: Ki) was 3.6 µM, the Ki (delta opioid receptor; read-out: Ki) was greater than 10 µM and the Ki ([1]; read-out: Ki) was 0.36 µM. For the same compound, the Ki ([2]; read-out: Ki) was 2.6 µM, the Ki ([3]; read-out: Ki) was 0.68 µM and the Ki (serotonin 5HT1A receptor; read-out: Ki) was 0.54 µM. The Ki (serotonin 5HT2A receptor; read-out: Ki) was 2.9 µM and the Ki (mouse opioid receptor) was less than 10 µM.

In the case of `C=C[C@H]1CN2CCc3c([nH]c4cccc(OC)c34)[C@@H]2C[C@@H]1/C(=C\OC)C(=O)OC` [Compound 5, Paynantheine], the Ki (human mu opioid receptor [4]) is given as 0.41 ± 0.2 µM, the Ki [5] is given as 0.67 ± 0.08 µM and the Ki [6] is given as 2.6 ± 0.4 µM. For the same compound, the Ki [7] was 0.89 ± 0.3 µM, the Ki [8] was greater than 10 µM and the Ki [9] was 4.3 ± 0.7 µM. For the same compound, the “functional activity (BRET)” value (human mu opioid receptor [10]) was “antagonist” and the “functional activity (BRET)” value [11] was “no agonist or antagonist activity”.

Compound `CC[C@@H]1CN2CC[C@@]3(O)C(=Nc4cccc(OC)c43)[C@@H]2C[C@@H]1/C(=C\OC)C(=O)OC` [Compound 7, 7-Hydroxymitragynine] has a Ki (kappa opioid receptor; read-out: Ki) of 0.32 µM, a Ki (delta opioid receptor; read-out: Ki) of 0.47 µM and a Ki ([1]; read-out: Ki) greater than 10 µM. The Ki ([2]; read-out: Ki) was greater than 10 µM, the Ki ([3]; read-out: Ki) was greater than 10 µM and the Ki (serotonin 5HT1A receptor; read-out: Ki) was greater than 10 µM. It also gave a Ki (serotonin 5HT2A receptor; read-out: Ki) greater than 10 µM.

Compound `COC(=O)C1=CO[C@@H](C)C2CN3CCc4c([nH]c5ccccc45)[C@@H]3C[C@H]12` (some centres unmarked) [Compound 11, Ajmalicine] has a Ki (mu opioid receptor [12]) of 8.96 µM, a Ki (kappa opioid receptor) greater than 10 µM and a Ki (delta opioid receptor) greater than 10 µM. For the same compound, the Ki [1] was 0.045 µM, the Ki [3] was 0.065 µM and the Ki (serotonin 5HT1A receptor) was 0.42 µM. For the same compound, the Ki (serotonin 5HT2A receptor) was greater than 10 µM.

With `COC(=O)C1=CO[C@@H](C)[C@@H]2CN3CCc4c([nH]c5ccccc45)[C@@H]3C[C@H]12` [Compound 12, Tetrahydroalstonine] the Ki (mu opioid receptor [12]) was greater than 10 µM, the Ki (kappa opioid receptor) was greater than 10 µM and the Ki (delta opioid receptor) was greater than 10 µM. For the same compound, the Ki [1] was 0.018 µM, the Ki [2] was 0.04 µM and the Ki [3] was 0.053 µM. It also gave a Ki (serotonin 5HT1A receptor) of 0.38 µM and a Ki (serotonin 5HT2A receptor) of 2.6 µM.

For `CC[C@@H]1CN2CC[C@]3(C(=O)Nc4ccccc43)[C@@H]2C[C@@H]1/C(=C\OC)C(=O)OC` [Compound 14, Corynoxine B], the Ki (mu opioid receptor [12]) was 1.6 µM, the Ki (kappa opioid receptor) was greater than 10 µM and the Ki (delta opioid receptor) was 7.6 µM. The Ki [1] was greater than 10 µM, the Ki [2] was greater than 10 µM and the Ki [3] was greater than 10 µM. The Ki (serotonin 5HT1A receptor) was greater than 10 µM and the Ki (serotonin 5HT2A receptor) was greater than 10 µM.

`CC[C@H]1CN2CC[C@@]3(C(=O)Nc4ccccc43)[C@@H]2C[C@@H]1/C(=C\OC)C(=O)OC` [Compound 16, Isorhynchophylline] gave a Ki (kappa opioid receptor) greater than 10 µM, a Ki (delta opioid receptor) of 6.4 µM and a Ki [1] of 4.8 µM. The Ki [2] was greater than 10 µM, the Ki [3] was greater than 10 µM and the Ki (serotonin 5HT1A receptor) was greater than 10 µM. It also gave a Ki (serotonin 5HT2A receptor) greater than 10 µM.

For `C=C[C@H]1CN2CC[C@]3(C(=O)Nc4ccccc43)[C@@H]2C[C@@H]1/C(=C\OC)C(=O)OC` [Compound 20, Corynoxeine], the Ki (mu opioid receptor [12]) was greater than 10 µM, the Ki (kappa opioid receptor) was greater than 10 µM and the Ki (delta opioid receptor) was greater than 10 µM. For the same compound, the Ki [1] was greater than 10 µM, the Ki [2] was 8.4 µM and the Ki [3] was greater than 10 µM. The Ki (serotonin 5HT1A receptor) was greater than 10 µM and the Ki (serotonin 5HT2A receptor) was greater than 10 µM.

Work on `C=C[C@H]1CN2CC[C@@]3(C(=O)Nc4ccccc43)[C@@H]2C[C@@H]1/C(=C\OC)C(=O)OC` [Compound 21, Isocorynoxeine] yielded a Ki (mu opioid receptor [12]) greater than 10 µM, a Ki (kappa opioid receptor) greater than 10 µM and a Ki (delta opioid receptor) greater than 10 µM. It also gave a Ki [1] greater than 10 µM, a Ki [2] greater than 10 µM and a Ki [3] greater than 10 µM. For the same compound, the Ki (serotonin 5HT1A receptor) was greater than 10 µM and the Ki (serotonin 5HT2A receptor) was greater than 10 µM.

In the case of `CCOC(=O)C1(c2ccccc2)CCN(CCC(C#N)(c2ccccc2)c2ccccc2)CC1` [diphenoxylate], the Ki (mu opioid receptor [13]) is given as 0.0124 µM.

For `CCC(=O)O[C@](Cc1ccccc1)(c1ccccc1)[C@H](C)CN(C)C` [propoxyphene], the Ki (mu opioid receptor [13]) is given as 0.12 µM.

Mitragynine [Compound 1] showed a Ki (kappa opioid receptor; read-out: Ki) of 1.3 µM, a Ki (delta opioid receptor; read-out: Ki) of 6.5 µM and a Ki ([1]; read-out: Ki) of 2.3 µM. It also gave a Ki ([2]; read-out: Ki) of 4.9 µM, a Ki ([3]; read-out: Ki) of 3.5 µM and a Ki (serotonin 5HT1A receptor; read-out: Ki) of 5.8 µM. For the same compound, the Ki (serotonin 5HT2A receptor; read-out: Ki) was 7.3 µM, the “functional activity (BRET)” value (human mu opioid receptor [10]) was “partial agonist” and the “functional activity (BRET)” value [11] was “competitive antagonist”.
